Data published in PubChem BioAssay (NCI).
Values joined by “and” are separate entries in the source; they are usually repeats but may differ in a detail not shown here. Equal values may be shown once.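 Grown in 96-well plates, cells were treated for 48 hours with each compound at five concentrations. Insufficient inhibition: endpoint recorded as highest concentration tested. GI50 marks 50% less growth. TGI: total growth inhibition.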

What was measured:
Test in all cases: DTP human tumour cell line panel, 48 h
[1] = tested on: HT29 colon
[2] = tested on: MALME-3M melanoma
[3] = tested on: NCI-H460 lung
[4] = tested on: OVCAR-8 ovarian
[5] = tested on: SF-539 CNS
[6] = tested on: SK-MEL-2 melanoma
[7] = tested on: SN12C renal
[8] = tested on: SNB-75 CNS
[9] = tested on: TK-10 renal
[10] = tested on: NCI/ADR-RES ovarian

SMILES	TGI [1] [µM]	TGI [2]	TGI [3] [µM]	TGI [4] [µM]	TGI [5]	TGI [6]	TGI [7] [µM]	TGI [8]	TGI [9] [µM]	GI50 [1] [µM]	GI50 [2] [µM]	GI50 [3] [µM]	GI50 [10] [µM]	TGI [10] [µM]	GI50 [4] [µM]	GI50 [5] [µM]	GI50 [6] [µM]	GI50 [7] [µM]	GI50 [9] [µM]	GI50 [8] [µM]
COc1ccc2oc3c(OC)c(OC)c(OC)cc3c(=O)c2c1	> 100	> 100 µM	> 100	> 100	> 100 µM	> 100 µM	> 100	84.5 µM	> 100											
[N-]=[N+]=NCCCn1c2c(c3ccc([N+](=O)[O-])cc3c1=O)C(=O)c1cc(Br)ccc1-2	> 100	> 100 µM	> 100	> 100	> 100 µM	> 100 µM	> 100		> 100	> 100	> 100	8.35	> 100	> 100	> 100	> 100	> 100	> 100	> 100	
CCOC(=O)/C(=C/c1cccc(Cl)c1)N(CC)CC	> 100	> 100 µM	> 100	> 100	> 100 µM	68.5 µM	> 100	> 100 µM	> 100											
COc1ccc(-c2ccc(/C=N/n3c(COc4ccccc4Cl)nn(CN4CCOCC4)c3=S)o2)c([N+](=O)[O-])c1	> 100	44.3 µM	49	> 100	60.8 µM		96.7		47.9	49.9	18	19.8	21.3	49.2	39.4	28.6		32	14.9	
C1CCCCc2nc3c(nc2CCC1)c1nc2c(nc1c1nc4c(nc31)CCCCCCCC4)CCCCCCCC2	> 100	> 100 µM	> 100	> 100	> 100 µM	> 100 µM	> 100	> 100 µM	> 100											
CC1=C(SC#N)S(=O)(=O)N(c2ccccc2)C(C)=C1SC#N	> 100	> 100 µM	> 100	> 100	> 100 µM	> 100 µM	> 100	63.9 µM	> 100											
COc1cc(/C=C/c2ccc(O)c(OC)c2)cc(OC)c1	85.8	> 100 µM	52.5	> 100				97 µM	68.3					> 100						
COc1ccccc1NC(=O)C1=C(C)NC(C)=C(C(=O)Nc2ccccc2OC)C1/C=C/c1ccccc1	> 100	> 100 µM	> 100	> 100	> 100 µM	> 100 µM	> 100	79.7 µM	> 100											
CCOC(=O)C(Cc1ccc(N(CCCl)CCCl)cc1)NC(=O)C(Cc1ccccc1)NC=O (stereo not drawn)	0.289	0.191 µM	0.604	0.527	0.316 µM	0.989 µM	0.294		0.275					0.656						
COC1CC(O)C(OC(=O)c2ccccc2)C(C)O1 (stereo not drawn)	> 100	> 100 µM	> 100	> 100	> 100 µM		> 100		> 100											
ClCc1ccccc1Cn1cnc2ncnc(Cl)c21	> 100		60.9	8.74	4.98 µM	19.7 µM	8.5	26.6 µM	9.57	3.93		13.5	2.1	4.47	2.74	2.35	4.2	2.96	3.5	11.3
CCCCCC(=O)Nc1nc2nc[nH]c2c(=O)[nH]1	> 100	> 100 µM	> 100	> 100	> 100 µM	> 100 µM	> 100	> 100 µM	> 100											
Cc1ccc2nc(NC(=O)C(=O)C(C#N)c3ccc(Cl)cc3)sc2c1 (stereo not drawn)	> 50	> 50 µM	> 50	> 50	> 50 µM	> 50 µM	> 50	> 50 µM	> 50											
Nc1nc2c(C(=O)NCc3cccs3)nnn2c2cccc(Cl)c12	> 100	> 100 µM	> 100	> 100	> 100 µM	> 100 µM	> 100		> 100					> 100						
CC1OC(=O)C(O)=C1O (stereo not drawn)	> 100	> 100 µM	> 100	> 100	> 100 µM	> 100 µM	> 100	> 100 µM	> 100											
c1ccc(OCCC[P+](c2ccccc2)(c2ccccc2)c2ccccc2)cc1	9.21		13.5	12.8	18.3 µM	4.88 µM	12.5	6.7 µM		0.984		2.79	> 100	> 100	1.83	3.07	1.56	2.61		1.27
C=C1C(O)C2CC(C)(CO)C(=O)C2=C(CC(C)C)C12CC2 (stereo not drawn)	> 100	> 100 µM	> 100	> 100	> 100 µM	> 100 µM	> 100		> 100	> 100	28.3	67	> 100	> 100	77.8	51.6	> 100	> 100	52.9	
CCCCCCCC1(c2ccc(N)cc2)CCC(=O)NC1=O (stereo not drawn)		> 100 µM	> 100	> 100		> 100 µM	> 100	96.2 µM	> 100											
CCOC(=O)c1cc(-c2ccc(-c3cc(C(=O)OCC)c(C#N)c(N)c3C#N)cc2)c(C#N)c(N)c1C#N	> 100	> 100 µM	> 100	> 100	> 100 µM	> 100 µM	> 100		> 100											
CC(C)c1cccc(C(C)C)c1N1C(=O)C(=O)C(c2nc3ccccc3o2)C(=O)C1=O	> 100	> 100 µM	> 100	> 100	> 100 µM	> 100 µM	> 100	> 100 µM	> 100											
CCC(C)CC(C)CC(C)/C=C(\C)C1=C(C)CC(C)(O)O1 (stereo not drawn)	> 100		> 100	> 100	> 100 µM		> 100	> 100 µM	> 100											

SMILES	TGI [1] [µM]	TGI [2]	TGI [3] [µM]	TGI [4] [µM]	TGI [5]	TGI [6]	TGI [7] [µM]	TGI [8]	TGI [9] [µM]	GI50 [1] [µM]	GI50 [2] [µM]	GI50 [3] [µM]	GI50 [10] [µM]	TGI [10] [µM]	GI50 [4] [µM]	GI50 [5] [µM]	GI50 [6] [µM]	GI50 [7] [µM]	GI50 [9] [µM]	GI50 [8] [µM]
COc1ccc(-c2cncn2-c2cc(OC)c(OC)c(OC)c2)cc1	> 100		> 84.6	> 51.3	0.46 µM	> 100 µM	> 100		27.1	0.153	< 0.0163	0.367	0.0652	0.915	1.07	0.0671	0.045	0.527	0.139	
CS(=O)(=O)c1ccc(Nc2nc(N[C@H]3CCCC[C@H]3N)nc3cc[nH]c(=O)c23)cc1	11.8	4.64 µM	11.5	20.3	7.09 µM		> 100	3.51 µM	18.7	2.48	1.73	2.62	> 100	> 100	2.68	2.24		2.76	3.19	1.29
NC1c2ccccc2Nc2ccccc21	20.4	19 µM	11.1	17.1		29.8 µM	19	24.4 µM	29.8											
COC1=CC(C2c3cc4c(cc3[C@@H](Nc3ccc(F)cc3)C3COC(=O)[C@H]23)OCO4)=CC(=O)C1=O (stereo partly drawn)	> 68.3	36.6 µM	14.9	> 51.4	20.3 µM		24.8	> 45.1 µM	> 63											
C/C(CN1C(=O)c2ccccc2C1=O)=N\NS(=O)(=O)c1cccc(C(=O)O)c1	> 100	> 100 µM	> 100	> 100	> 100 µM	> 100 µM	> 100	> 100 µM	> 100											
N#CC(C(=O)CCCC(=O)Nc1ccc(Cl)cc1Cl)c1ccccc1 (stereo not drawn)	> 100	> 100 µM	> 100	> 100	> 100 µM	> 100 µM	> 100		> 100											
Cc1cccc(C(=O)O)c1C(=O)c1cccc2ccccc12	> 100	> 100 µM	> 100	> 100		> 100 µM	> 100	> 100 µM	> 100											
CC1=C(C(=O)Nc2ccccc2)C(c2ccccc2Cl)C(C(=O)Nc2ccccc2)=C(C)N1	37.9	39.7 µM		91.8	37.6 µM	33.1 µM	33	76.4 µM	> 100											
CCCCCCCCCCCCC(O)c1ccco1 (stereo not drawn)	> 100		> 100	52.9	38.7 µM	46 µM	31.7	39 µM	40.9	35.8		29.5	16.4	30.8	25.6	20.9	22	17.1	22.8	21.1
COCCOc1cc(C)cc(/C=C(C)/C=C/C2=C(C)CCCC2(C)C)n1	> 100	> 100 µM	> 100	> 100	> 100 µM	> 100 µM	> 100	> 100 µM	> 100											
CC(C)c1cc(C(C)C)c(S(=O)(=O)N=[N+]=[N-])c(C(C)C)c1	> 100	> 100 µM	> 100	> 100	> 100 µM		> 100	> 100 µM	> 100											
O=C(O)CCNS(=O)(=O)c1ccc2ccccc2c1	> 100	> 100 µM	> 100	> 100	> 100 µM	> 100 µM	> 100	> 100 µM	> 100											
O=C(C(=O)n1ncc(Cl)c(Cl)c1=O)n1ncc(Cl)c(Cl)c1=O	34	48.1 µM	> 100	> 59.9	> 68.8 µM	74.9 µM	> 65.8	97.2 µM	70.1											
CCC[CH2][Sn]([CH2]CCC)([S]C#N)[S]C#N	8.51	2.27 µM	4.96	3.54	2.55 µM	1.68 µM	2.52	2.08 µM	2.4	2.77	0.753	2.14			1.53	1.24	0.457	1.18	1.11	0.592
Cc1cc(-c2c(F)cc3c4nn([C@H]5CC[C@@H](N(C)C)CC5)c(=O)c-4cn(C4CC4)c3c2F)cc(C)n1	1.1	0.208 µM and 1.67 µM	0.273	0.808	0.174 µM and 0.62 µM	0.256 µM and 1.94 µM	0.0888	0.19 µM and 0.54 µM			0.0318					0.0561	0.0735	0.0207		0.158
COc1ccc2nc(C(=O)c3ccccc3)c(C)cc2c1	11	> 39.1 µM	> 100	> 46.3	13.8 µM	> 100 µM	> 65.8	14.4 µM	76.1											
Cc1c(C(=O)O)n(C)c(=O)n(C)c1=O	> 100	> 100 µM	> 100	> 100	> 100 µM	> 100 µM	> 100	> 100 µM	> 100											
COc1ccc(C2=Nc3ccccc3SC(C)C2)cc1OC (stereo not drawn)	37.2	42.8 µM	36.3	43.8		72.2 µM	42	35 µM	79.4											
Cc1ccc(NC(=O)C(=O)CC(=O)c2c(C)n([O-])c3ccccc3[n+]2=O)cc1C	> 100	> 100 µM	> 100	> 100	> 100 µM	> 100 µM	> 100	> 100 µM	> 100											
O=C(NNc1ccc(Cl)cc1)C1CCC(CNS(=O)(=O)c2ccccc2Cl)CC1 (stereo not drawn)			> 100	> 100	45.1 µM	> 100 µM	50.9		6.68			14.3	15.5	50.7	21.6	17.4	30.9	14.7	0.453	
